From PMC10534582, “A Pharmacokinetic Study of Sixteen Major Bioactive Components of Jinshui-Huanxian Granules in Pulmonary Fibrosis Model and Control Rats Using Orbitrap Fusion Mass Spectrometry” (Molecules, 2023)
Like-named read-outs stand apart in the source and are kept apart here.

Experiments:
[1] = Pharmacokinetics of JHG components in pulmonary fibrosis (PF) model rats after intragastric administration of JHGs (plasma, Orbitrap Fusion MS); assay type: in vivo, Sprague Dawley (SD) rats; settings: for pharmacokinetic process (versus dosage): low, medium, high doses of JHGs
Description: (§1) Healthy male Sprague Dawley (SD) rats of SPF grade (240 ± 20 g) were purchased from Sipeifu (Beijing, China) Biotechnology Co., Ltd. (Beijing, China), Certificate of Conformity No.: SCYK (Beijing, China) 2019-0015, Animal Quality Certificate No.: 110324220102348616. They were housed in the Animal Center of Henan University of Traditional Chinese Medicine, which passed the ethical audit, ethics number: DWLL202208003, breeding Co. 24 °C, relative humidity 50 ± 2%. The animals fasted for 12 h before the experiment and drank water freely. All feeding and experimental studies on experimental animals were in accordance with the regulations on the Management of Experimental Animals in Henan Province.
The PF model in rats was replicated by reference to the conclusion tracheal intubation method in the literature. After the rats were anesthetized, bleomycin (BLM) (5 mg/kg) was used as an induction agent and followed the tracheal intubation method. BLM solution was aspirated with a 1 mL syringe and injected into the indwelling syringe. A total of 0.3 mL of air was rapidly pushed into the syringe, the rats were immediately stroked upright so that the BLM solution was evenly distributed in both lungs. BLM was given on day 0 for modeling, then gavage was taken after day 28, with fasting without water for 12 h before sampling. The histopathological examination was performed to verify the construction of the PF model. The rats were anesthetized by the abdominal cavity, then the lung tissues were violently shocked by opening the chest, and the right lower lobe of the lung was taken and fixed in 4% formaldehyde solution, then dehydrated by sucrose gradient, paraffin-embedded, and sectioned. H&E and Masson staining were performed to observe the degree of alveolitis of lung tissue and the degree of pulmonary fibrosis, respectively. The inflammation and fibrosis of lung tissues was observed under the light microscope.
(§2) Twenty-four healthy male SD rats or PF model rats, weighing 240 ± 20 g, fasted for 12 h before the experiment and drank water freely. Both kinds of rats were randomly divided into four groups. Blank group: equal dose of water by intragastric, low dose; administration group: rats were given the equivalent human dose of JHGs by intragastric, i.e., 10.8 g of raw drug/kg/d (5.70 g/kg/d); medium-dose administration group: 2 times the human equivalent dose of JHGs by intragastric, i.e., 21.6 g of raw drug/kg/d (11.41 g/kg/d); high-dose administration group: 4 times the human equivalent dose of JHG, i.e., 43.2 g of raw drug/kg/d (22.81 g/kg/d). Blood was collected from the tail vein before and 0.083, 0.25, 0.5, 0.75, 1, 1.5, 2, 3, 4, 6, 8, 12, 18, and 24 h after dosing, respectively. A total of 0.5 mL was placed in a heparin sodium centrifuge tube. Whole blood was left for 30 min and then centrifuged in a low-temperature freezing centrifuge (4 °C, 3000 r/min) for 15 min. The upper layer of plasma was collected and stored in a refrigerator at −80 °C.
(§3) We added 50 μL of internal standard solution and 800 μL of methanol, shook for 15 min, then centrifuged at 12,000 r/min for 10 min, took the supernatant, dried in a centrifuge concentrator, added 50 μL of the initial mobile phase to the residue, dissolved, centrifuged, then separated the upper layer of the solution used as the test solution. A total of 5 μL test solution was taken into the sample for analysis. For each compound with a certain dosage, the same procedure is repeated six times in parallel. The concentration in plasma was calculated by the internal standard method.
Accucore C18 (100 mm × 2.1 mm, 2.6 μm) column at 25 °C, the mobile phase was methanol (A)-0.1% formic acid aqueous solution (B). The gradient elution program was 0–4 min (65% B-40% B), 4–5 min (40% B-40% B), 5–6 min (40% B-28% B), and 6–7 min (28% B-19% B), 7–7.5 min (19% B-10% B), 7.5–11 min (10% B-0% B), the flow rate was 0.2 mL/min, and the injection volume was 5 μL. […]

[2] = Pharmacokinetics of JHG components in control rats after intragastric administration of JHGs (plasma, Orbitrap Fusion MS); assay type: in vivo, Sprague Dawley (SD) rats; settings: for AUC(0-inf) / AUC(0-t) / half-life / MRT last / MRT inf / Tmax / Cmax: male, rat, plasma, po; for MRT last: read-out: MRT(0-t); for MRT inf: read-out: MRT(0-∞); for Cmax: intragastric JHGs
Description: as §1, §2, §3
Accucore C18 (100 mm × 2.1 mm, 2.6 μm) column at 25 °C, the mobile phase was methanol (A)-0.1% formic acid aqueous solution (B). The gradient elution program was 0–4 min (65% B-40% B), 4–5 min (40% B-40% B), 5–6 min (40% B-28% B), and 6–7 min (28% B-19% B), 7–7.5 min (19% B-10% B), 7.5–11 min (10% B-0% B), the flow rate was 0.2 mL/min, and the injection volume was 5 μL.
The ion source was an electrospray ionization source (ESI). Nitrogen acted as a carrier gas. The sheath gas pressure was 35 Arb. The auxiliary gas pressure was 7 Arb. The spray voltage was 3.50 kv(+), 2.50 kv(-). The ion transport tube temperature was regulated at 300 °C. Gasification temperature was 275 °C. The resolution was 50,000. The scanning mode was set as SIM mode. The optimized parameters obtained are in Table 5.
Under the established Orbitrap Fusion MS method, the pharmacokinetics of JHG in rats were studied to investigate the dynamic changes of the active components in rats. The pharmacokinetic parameters of each component in each dosing group were calculated by […] model analysis using Kinetica 5.1 (Innaphase, Waltham, MA, USA) pharmacokinetic analysis software. The pharmacotemporal curves were plotted by the plotting software. SPSS 19.0 (IBM, Armonk, NY, USA) was used to analyze all the parameters. Independent sample tests were performed after natural logarithmic transformation for AUC0–t, Cmax. The nonparametric Mann–Whitney test was applied for Tmax, t½, and MRT0–t. p < 0.05 was considered statistically significant.

[3] = Sprague Dawley, 5.7 g/kg/day, JHGs low dose 5.70 g/kg/d
[4] = Sprague Dawley, 5.7 g/kg/day, JHGs low dose 5.70 g/kg/d, read-out: Tmax
[5] = Sprague Dawley, 5.7 g/kg/day, low dose 5.70 g/kg/d, n=6 (1st of 3 stacked values)
[6] = Sprague Dawley, 11.41 g/kg/day, JHGs medium dose 11.41 g/kg/d
[7] = Sprague Dawley, 11.41 g/kg/day, JHGs medium dose 11.41 g/kg/d, read-out: Tmax
[8] = Sprague Dawley, 11.41 g/kg/day, medium dose 11.41 g/kg/d, n=6 (2nd of 3 stacked values)
[9] = Sprague Dawley, 22.81 g/kg/day, JHGs high dose 22.81 g/kg/d
[10] = Sprague Dawley, 22.81 g/kg/day, JHGs high dose 22.81 g/kg/d, read-out: Tmax
[11] = Sprague Dawley, 22.81 g/kg/day, high dose 22.81 g/kg/d, n=6 (3rd of 3 stacked values)

Row | Compound | Clearances ([2]; JHGs high dose 22.81 g/kg/d) [mL/min/kg] | Vss ([2]; JHGs high dose 22.81 g/kg/d) [L] | Clearances ([2]; JHGs low dose 5.70 g/kg/d) [mL/min/kg] | Vss ([2]; JHGs low dose 5.70 g/kg/d) [L] | Clearances ([2]; JHGs medium dose 11.41 g/kg/d) [mL/min/kg] | Vss ([2]; JHGs medium dose 11.41 g/kg/d) [L] | AUC(0-inf) [2, 3] [ng·h/mL] | AUC(0-t) [2, 3] [ng·h/mL] | half-life [2, 3] [h] | MRT last [2, 3] [h] | MRT inf [2, 3] [h] | Tmax [2, 4] [h] | Cmax [2, 5] [ng/mL] | AUC(0-inf) [2, 6] [ng·h/mL] | AUC(0-t) [2, 6] [ng·h/mL] | half-life [2, 6] [h] | MRT last [2, 6] [h] | MRT inf [2, 6] [h] | Tmax [2, 7] [h] | Cmax [2, 8] [ng/mL] | further results
1 | CC1CCC2N(C1)CC1C3CC4C(CC(O)C5CC(O)CCC54C)C3CCC1C2(C)O (stereo not drawn) [Peimine] | 88.7 ± 12.2 | 60.06 ± 7.12 | 31 ± 7.83 | 131.39 ± 53.45 | 75.5 ± 9.5 | 61.2 ± 9.95 | 24.7 ± 5.52 | 7.38 ± 2.13 | 52.1 ± 30.7 | 11.1 ± 0.12 | 75.3 ± 41.8 | 4 | 0.57 ± 0.22 | 17.6 ± 2.24 | 14.6 ± 1.9 | 8.02 ± 0.39 | 8.8 ± 0.32 | 13.5 ± 0.58 | 3.33 ± 0.58 | 1.49 ± 0.26 | MRT(0–t), PF model group compared with the control group ([1]; PF model vs control rats): decreased; pharmacokinetic process (Cmax and AUCs versus dosage) ([2]; low, medium, high doses of JHGs): linear pharmacokinetic process; AUC(0-inf) [2, 9]: 29.9 ± 4.92 ng·h/mL; AUC(0-t) [2, 9]: 26.6 ± 4.11 ng·h/mL; half-life [2, 9]: 7.23 ± 0.62 h; MRT last [2, 9]: 8.43 ± 0.11 h; MRT inf [2, 9]: 11.3 ± 0.63 h; Tmax [2, 10]: 2.67 ± 0.58 h; Cmax [2, 11]: 2.53 ± 0.56 ng/mL
2 | CC1CCC2N(C1)CC1C3CC4C(CC(=O)C5CC(O)CCC54C)C3CCC1C2(C)O (stereo not drawn) [Peiminine] | 112 ± 30.2 | 67.52 ± 15.96 | 46.2 ± 14 | 28.03 ± 8.27 | 61 ± 18.7 | 40.68 ± 9.67 | 31.9 ± 9.55 | 29.1 ± 8.48 | 6.06 ± 0.22 | 8.01 ± 0.09 | 10.2 ± 0.32 | 4.67 ± 1.15 | 2.91 ± 0.9 | 43.9 ± 16.4 | 38.6 ± 13.2 | 7.97 ± 0.84 | 8.23 ± 0.25 | 11.3 ± 1.03 | 4 | 4.22 ± 1.27 | Tmax, PF model group compared with the control group ([1]; PF model vs control rats): decreased significantly; AUC(0-inf) [2, 9]: 46.1 ± 13.7 ng·h/mL; AUC(0-t) [2, 9]: 42 ± 11.7 ng·h/mL; half-life [2, 9]: 6.82 ± 0.57 h; MRT last [2, 9]: 7.84 ± 0.1 h; MRT inf [2, 9]: 10.1 ± 0.42 h; Tmax [2, 10]: 3 h; Cmax [2, 11]: 5.31 ± 1.61 ng/mL
3 | C[C@@H]1O[C@@H](OC[C@H]2O[C@@H](Oc3c(-c4ccc(O)c(O)c4)oc4cc(O)cc(O)c4c3=O)[C@H](O)[C@@H](O)[C@@H]2O)[C@H](O)[C@H](O)[C@H]1O [Rutin] |  |  |  |  |  |  |  |  |  |  |  |  |  |  |  |  |  |  |  |  | pharmacokinetic process (versus dosage) ([1]; PF model rats): linear pharmacokinetic process; Tmax ([1]; male, Sprague-Dawley, rat, plasma, po, PF model rats, after administration of JHGs, read-out: Tmax of all dosages): ≤ 2 h; correlation between CL, AUCs (AUC(0–t), AUC (0–∞)), t½, and dose [2]: no correlation; Tmax ([2]; Sprague-Dawley, after administration of JHGs, read-out: Tmax of all dosages): ≤ 2 h
4 | COc1cc(O)c2c(c1)oc(=O)c1c3cc(O)c(O)cc3oc21 [Wedelolactone] | 0.1 ± 0 | 0.07 ± 0.01 | 0.05 ± 0.017 | 0.04 ± 0 | 0.05 ± 0 | 0.03 ± 0.01 | 139 ± 45.6 | 110 ± 24.7 | 10.7 ± 3.69 | 7.52 ± 0.34 | 14 ± 3.66 | 2 | 18.6 ± 3.98 | 276 ± 35.6 | 242 ± 32.4 | 8.01 ± 1.33 | 8.23 ± 0.18 | 11.6 ± 1.32 | 3.67 ± 0.58 | 27.8 ± 2.35 | pharmacokinetic process (versus dosage) ([1]; PF model rats): linear pharmacokinetic process; MRT(0–t), PF model group compared with the control group ([1]; PF model vs control rats): decreased; AUC(0-inf) [2, 9]: 262 ± 13.5 ng·h/mL; AUC(0-t) [2, 9]: 221 ± 17.2 ng·h/mL; half-life [2, 9]: 8.2 ± 0.63 h; MRT last [2, 9]: 7.5 ± 0.21 h; MRT inf [2, 9]: 12 ± 1.32 h; Tmax [2, 10]: 1.83 ± 0.29 h; Cmax [2, 11]: 35.4 ± 2.29 ng/mL
